Laboratory results as given in patent publication US8785614B2, “Aberrantly methylated genes in pancreatic cancer” (The Johns Hopkins University, priority 2003, dated 2014).

Columns and labels:
[1] = system: MiaPaCa2 pancreatic cancer cell line; test: Oligonucleotide microarray gene expression after TSA (1 μM, 24 h) vs mock; assay type: cell-based, human
[2] = system: Panc1 pancreatic cancer cell line; test: as above; assay type: cell-based, human
From the text: These include a large panel of novel targets for silencing by histone deacetylation including several known tumor suppressor genes or cell cycle-regulatory genes (ING1, p57KIP2, CHES1, CHFR, GADD45B, and others).

Structure (SMILES): CC(/C=C/C(=O)NO)=C\[C@@H](C)C(=O)c1ccc(N(C)C)cc1 [TSA, trichostatin A]
- Fold-change after TSA treatment ([1]; ADM, MiaPaCa2): 5.02 fold
- Fold-change after TSA treatment ([1]; ANGPT1, MiaPaCa2): 1.75 fold
- Fold-change after TSA treatment ([1]; AREG, MiaPaCa2): 3.97 fold
- Fold-change after TSA treatment ([1]; ATF3, MiaPaCa2): 2.14 fold
- Fold-change after TSA treatment ([1]; BIK, MiaPaCa2): 10.05 fold
- Fold-change after TSA treatment ([1]; CACNA1G, MiaPaCa2): 4.61 fold
- Fold-change after TSA treatment ([1]; CAPN5, MiaPaCa2): 5.18 fold
- Fold-change after TSA treatment ([1]; CDH8, MiaPaCa2): −1.29 fold
- Fold-change after TSA treatment ([1]; CDKN1C, MiaPaCa2): 13.22 fold
- Fold-change after TSA treatment ([1]; CGR11, MiaPaCa2): 3.22 fold
- Fold-change after TSA treatment ([1]; CHES1, MiaPaCa2): −1.03 fold
- Fold-change after TSA treatment ([1]; CHFR, MiaPaCa2): 1.27 fold
- Fold-change after TSA treatment ([1]; CLDN15, MiaPaCa2): 1.13 fold
- Fold-change after TSA treatment ([1]; EDR1, MiaPaCa2): 5.91 fold
- Fold-change after TSA treatment ([1]; EGR4, MiaPaCa2): 8.67 fold
- Fold-change after TSA treatment ([1]; EREG, MiaPaCa2): 1.7 fold
- Fold-change after TSA treatment ([1]; GADD45B, MiaPaCa2): 5.06 fold
- Fold-change after TSA treatment ([1]; GAGE1, MiaPaCa2): 0.53 fold
- Fold-change after TSA treatment ([1]; GAGE2, MiaPaCa2): 1.31 fold
- Fold-change after TSA treatment ([1]; GAGE3, MiaPaCa2): −2.68 fold
- Fold-change after TSA treatment ([1]; GAGE4, MiaPaCa2): 1.32 fold
- Fold-change after TSA treatment ([1]; GAGE6, MiaPaCa2): −2.17 fold
- Fold-change after TSA treatment ([1]; GAGE7B, MiaPaCa2): −1.76 fold
- Fold-change after TSA treatment ([1]; H1 historic family, member 2 (BC002649), MiaPaCa2): 4.16 fold
- Fold-change after TSA treatment ([1]; HEP27, MiaPaCa2): 26.21 fold
- Fold-change after TSA treatment ([1]; HMOX1, MiaPaCa2): 5.25 fold
- Fold-change after TSA treatment ([1]; HPSE, MiaPaCa2): 14.09 fold
- Fold-change after TSA treatment ([1]; ID2, MiaPaCa2): 2.27 fold
- Fold-change after TSA treatment ([1]; ING1, MiaPaCa2): 13.25 fold
- Fold-change after TSA treatment ([1]; KLK12, MiaPaCa2): 2.91 fold
- Fold-change after TSA treatment ([1]; MAGE1, MiaPaCa2): 5.17 fold
- Fold-change after TSA treatment ([1]; MBD1, MiaPaCa2): 1.28 fold
- Fold-change after TSA treatment ([1]; MMP1, MiaPaCa2): 1.01 fold
- transcripts with marked induction ([1]; MiaPaCa2): 207 transcripts
- transcripts with marked induction, share of transcripts analyzed ([1]; MiaPaCa2): 1.1%
- Fold-change after TSA treatment ([1]; NGFR, MiaPaCa2): 13.46 fold
- Fold-change after TSA treatment ([1]; NOTCH3, MiaPaCa2): −1.04 fold
- Fold-change after TSA treatment ([1]; P-glycoprotein (mdr1), MiaPaCa2): 2.74 fold
- Fold-change after TSA treatment ([1]; STC1, MiaPaCa2): 2.73 fold
- Fold-change after TSA treatment ([1]; UCPH, MiaPaCa2): 6.39 fold
- Fold-change after TSA treatment ([1]; ULBP2, MiaPaCa2): 4.09 fold
- Fold-change after TSA treatment ([1]; WNT4, MiaPaCa2): 3.36 fold
- Fold-change after TSA treatment ([1]; candidate tumor suppressor gene 21 protein (AF040708), MiaPaCa2): 1.15 fold
- Fold-change after TSA treatment ([1]; connective tissue growth factor (M92934), MiaPaCa2): 4.28 fold
- Fold-change after TSA treatment ([1]; hemoglobin, alpha 1 (HBAI), MiaPaCa2): 77.77 fold
- Fold-change after TSA treatment ([1]; interleukin 8, MiaPaCa2): 1.36 fold
- Fold-change after TSA treatment ([1]; period homolog 1 (PERI), MiaPaCa2): 1.28 fold
- Fold-change after TSA treatment ([1]; prostate differentiation factor (AF003934), MiaPaCa2): 16.4 fold
- Fold-change after TSA treatment ([1]; protease inhibitor 12 (neuroserpin) (SERPINU), MiaPaCa2): 44.44 fold
- Fold-change after TSA treatment ([1]; synovial sarcoma, X breakpoint 1 (BC001003), MiaPaCa2): 1.5 fold
- Fold-change after TSA treatment ([1]; tissue factor pathway inhibitor-2 (L27624), MiaPaCa2): −0.68 fold
- Fold-change after TSA treatment ([2]; ADM, Panc1): 3.22 fold
- Fold-change after TSA treatment ([2]; ANGPT1, Panc1): −1.13 fold
- Fold-change after TSA treatment ([2]; AREG, Panc1): 4.2 fold
- Fold-change after TSA treatment ([2]; ATF3, Panc1): 2.74 fold
- Fold-change after TSA treatment ([2]; BIK, Panc1): 5.02 fold
- Fold-change after TSA treatment ([2]; CACNA1G, Panc1): 10.14 fold
- Fold-change after TSA treatment ([2]; CAPN5, Panc1): 5.41 fold
- Fold-change after TSA treatment ([2]; CDH8, Panc1): 6.85 fold
- Fold-change after TSA treatment ([2]; CDKN1C, Panc1): 6.26 fold
- Fold-change after TSA treatment ([2]; CGR11, Panc1): 11.66 fold
- Fold-change after TSA treatment ([2]; CHES1, Panc1): 9.31 fold
- Fold-change after TSA treatment ([2]; CHFR, Panc1): −1.33 fold
- Fold-change after TSA treatment ([2]; CLDN15, Panc1): 8.69 fold
- Fold-change after TSA treatment ([2]; EDR1, Panc1): −2.06 fold
- Fold-change after TSA treatment ([2]; EGR4, Panc1): 6.44 fold
- Fold-change after TSA treatment ([2]; EREG, Panc1): −1.37 fold
- Fold-change after TSA treatment ([2]; GADD45B, Panc1): −1.09 fold
- Fold-change after TSA treatment ([2]; GAGE1, Panc1): 0.63 fold
- Fold-change after TSA treatment ([2]; GAGE2, Panc1): 1.4 fold
- Fold-change after TSA treatment ([2]; GAGE3, Panc1): 1.07 fold
- Fold-change after TSA treatment ([2]; GAGE4, Panc1): 2.29 fold
- Fold-change after TSA treatment ([2]; GAGE6, Panc1): 1.62 fold
- Fold-change after TSA treatment ([2]; GAGE7B, Panc1): 3.56 fold
- Fold-change after TSA treatment ([2]; HEP27, Panc1): 31.64 fold
- Fold-change after TSA treatment ([2]; HMOX1, Panc1): 1.21 fold
- Fold-change after TSA treatment ([2]; HPSE, Panc1): 3.03 fold
- Fold-change after TSA treatment ([2]; ID2, Panc1): 21.22 fold
- Fold-change after TSA treatment ([2]; ING1, Panc1): 1.5 fold
- Fold-change after TSA treatment ([2]; KLK12, Panc1): 2.13 fold
- Fold-change after TSA treatment ([2]; MAGE1, Panc1): 15.48 fold
- Fold-change after TSA treatment ([2]; MBD1, Panc1): −1.82 fold
- Fold-change after TSA treatment ([2]; MMP1, Panc1): −2.63 fold
- Fold-change after TSA treatment ([2]; NGFR, Panc1): 30.7 fold
- Fold-change after TSA treatment ([2]; NOTCH3, Panc1): 3.9 fold
- Fold-change after TSA treatment ([2]; P-glycoprotein (mdr1), Panc1): 3.69 fold
- transcripts with marked induction ([2]; Panc1): 459 transcripts
- transcripts with marked induction, share of transcripts analyzed ([2]; Panc1 (printed Panel)): 2.5%
- Fold-change after TSA treatment ([2]; SPANXA1, Panc1): 6.45 fold
- Fold-change after TSA treatment ([2]; STC1, Panc1): 5.63 fold
- Fold-change after TSA treatment ([2]; UCPH, Panc1): 2.05 fold
- Fold-change after TSA treatment ([2]; ULBP2, Panc1): 18.25 fold
- Fold-change after TSA treatment ([2]; WNT4, Panc1): 5.13 fold
- Fold-change after TSA treatment ([2]; candidate tumor suppressor gene 21 protein (AF040708), Panc1): 1.01 fold
- Fold-change after TSA treatment ([2]; connective tissue growth factor (M92934), Panc1): 7.69 fold
- Fold-change after TSA treatment ([2]; hemoglobin, alpha 1 (HBAI), Panc1): 4.55 fold
- Fold-change after TSA treatment ([2]; interleukin 8, Panc1): 3.01 fold
- Fold-change after TSA treatment ([2]; member 2 (BC002649), Panc1): 5.04 fold
- Fold-change after TSA treatment ([2]; period homolog 1 (PERI), Panc1): −3.83 fold
- Fold-change after TSA treatment ([2]; prostate differentiation factor (AF003934), Panc1): 4.05 fold
- Fold-change after TSA treatment ([2]; protease inhibitor 12 (neuroserpin) (SERPINU), Panc1): 11.7 fold
- Fold-change after TSA treatment ([2]; synovial sarcoma, X breakpoint 1 (BC001003), Panc1): 2.73 fold
- Fold-change after TSA treatment ([2]; tissue factor pathway inhibitor-2 (L27624), Panc1): 34.65 fold
